Results: US20230295235A1, “COMPOUNDS TARGETING ALPHA4-BETA7 INTEGRIN” (ZEALAND PHARMA A/S, priority 2020, published 2023)

Target: T1, α4β7 integrin (MAdCAM-1 binding, α4β7-positive Th memory cells) (Homo sapiens, UniProt P13612+P26010)
T1 construct: endogenous in cells; host or cells: human whole blood
T1 sequence (P13612 34-1032): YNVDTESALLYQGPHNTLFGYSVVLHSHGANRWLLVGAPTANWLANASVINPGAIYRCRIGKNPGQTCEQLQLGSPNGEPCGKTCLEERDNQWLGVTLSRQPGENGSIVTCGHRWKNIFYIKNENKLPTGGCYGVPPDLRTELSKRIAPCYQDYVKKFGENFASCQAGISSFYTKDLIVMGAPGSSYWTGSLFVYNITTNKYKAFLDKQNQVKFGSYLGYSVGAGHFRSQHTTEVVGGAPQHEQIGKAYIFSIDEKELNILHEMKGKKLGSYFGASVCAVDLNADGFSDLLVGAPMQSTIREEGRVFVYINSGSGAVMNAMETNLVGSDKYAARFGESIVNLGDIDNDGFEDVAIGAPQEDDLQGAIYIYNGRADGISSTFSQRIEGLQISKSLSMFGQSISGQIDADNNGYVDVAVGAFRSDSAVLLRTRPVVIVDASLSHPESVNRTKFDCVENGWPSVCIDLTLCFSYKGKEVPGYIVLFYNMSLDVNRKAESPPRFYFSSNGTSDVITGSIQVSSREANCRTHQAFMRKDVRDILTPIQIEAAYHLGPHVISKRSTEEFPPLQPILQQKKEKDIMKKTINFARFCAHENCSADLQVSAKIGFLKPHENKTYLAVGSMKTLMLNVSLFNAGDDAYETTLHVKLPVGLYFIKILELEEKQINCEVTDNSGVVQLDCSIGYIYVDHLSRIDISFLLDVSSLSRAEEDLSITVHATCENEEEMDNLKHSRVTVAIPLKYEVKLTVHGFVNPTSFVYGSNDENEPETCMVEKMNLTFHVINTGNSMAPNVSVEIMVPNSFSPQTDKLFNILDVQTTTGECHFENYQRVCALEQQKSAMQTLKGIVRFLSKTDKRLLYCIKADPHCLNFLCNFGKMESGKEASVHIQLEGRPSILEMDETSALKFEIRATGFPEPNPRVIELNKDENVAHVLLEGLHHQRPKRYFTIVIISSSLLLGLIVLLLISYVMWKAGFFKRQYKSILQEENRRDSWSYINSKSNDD
T1 sequence (P26010 20-798): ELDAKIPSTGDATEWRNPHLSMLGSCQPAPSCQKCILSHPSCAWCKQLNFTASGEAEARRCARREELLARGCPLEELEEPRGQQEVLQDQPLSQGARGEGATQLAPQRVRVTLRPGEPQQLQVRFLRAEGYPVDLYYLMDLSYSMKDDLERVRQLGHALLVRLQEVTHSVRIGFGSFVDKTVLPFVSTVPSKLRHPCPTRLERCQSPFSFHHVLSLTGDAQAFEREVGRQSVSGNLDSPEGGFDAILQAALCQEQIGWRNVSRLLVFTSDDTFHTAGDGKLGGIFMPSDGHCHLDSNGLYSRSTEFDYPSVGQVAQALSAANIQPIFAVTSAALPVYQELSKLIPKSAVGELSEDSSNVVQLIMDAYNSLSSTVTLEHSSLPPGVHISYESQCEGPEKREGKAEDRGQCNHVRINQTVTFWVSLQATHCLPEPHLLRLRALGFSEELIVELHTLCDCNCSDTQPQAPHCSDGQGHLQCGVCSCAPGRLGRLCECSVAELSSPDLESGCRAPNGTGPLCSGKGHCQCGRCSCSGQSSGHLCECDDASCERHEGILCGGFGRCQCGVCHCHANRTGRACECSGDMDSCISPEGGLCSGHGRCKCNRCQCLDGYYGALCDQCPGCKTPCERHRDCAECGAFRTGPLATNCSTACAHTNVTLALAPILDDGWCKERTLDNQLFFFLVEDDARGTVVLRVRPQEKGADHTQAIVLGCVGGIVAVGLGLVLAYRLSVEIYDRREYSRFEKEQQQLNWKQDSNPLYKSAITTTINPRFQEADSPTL
Assay: Competition assay: inhibition of biotinylated rhMAdCAM-1-Fc binding to α4β7-positive Th memory cells in whole blood (FACS receptor occupancy)
Assay type: cell-based
Conditions: single donor, 4 mM MnCl2, α4β7-positive Th memory cells, read-out: IC50, inhibition of MAdCAM-1 binding to primary cells
Protocol: The compound of Example 1 was used in competition assay on CD4+ integrin α4+β7-|o memory T cells.
Receptor occupancy in primary cells was determined by measuring the amount of biotinylated human recombinant MAdCAM-1-Fc or human recombinant VCAM-1-Fc bound to selected cell populations using flow cytometry. Human recombinant MAdCAM-1-Fc or human recombinant VCAM-1-Fc (R&D systems) were biotinylated using commercially available reagents and protocol (Pierce).
Whole blood was collected from human donors in sodium heparin tubes. A volume of 100 µL of blood was incubated with the compound of Example 1 and 4 mM MnCl2 for 1 hour at room temperature. Cells were washed twice with 1 mL of 1X Dulbecco’s phosphate buffered saline (DPBS) calcium magnesium free (CMF) (ThermoFisher Scientific) and resuspended in 100 µL of DPBS CMF. […]
Fluorescence-activated cell sorting (FACS) data was acquired by electronic gating on the basis of forward versus side scatter. […] Cell population were determined using the following markers: CD45+, CD3+, CD4+,CD45RO+, CD49d+, integrin β7, biotinylated ligands.
Compound receptor occupancy was defined as the decrease in the number of integrin β7+ or integrin β7-lo cells binding biotinylated rhMAdCAM-1 or rhVCAM-1, respectively. Receptor occupancy was calculated with the following equation: […]

## CC(C)C[C@@H]1NC(=O)c2ccc(-c3ccc(N4CCN(C(=O)c5ccccc5-c5ccccc5C(=O)N5CCN(c6ccc(-c7ccc8cc7CNC(=O)[C@@H]7CCCN7[C@H](C(=O)NC(C)(C)C)[C@H](C)NC(=O)[C@H]([C@@H](C)O)NC(=O)[C@H](CC(=O)O)NC(=O)[C@H](CC(C)C)NC8=O)cc6)CC5)CC4)cc3)c(c2)CNC(=O)[C@@H]2CCCN2[C@H](C(=O)NC(C)(C)C)[C@H](C)NC(=O)[C@H]([C@@H](C)O)NC(=O)[C@H](CC(=O)O)NC1=O [Example 1, 2,2′-((S,S,S,S,S,S,1^2,8S,11S,14S,17S,18S)-((([1,1′-Biphenyl]-2,2′-Dicarbonyl)-Bis(Piperazine-4,1-Diyl))Bis(4,1-Phenylene))Bis(18-(Tert-Butylcarbamoyl)-14-((R)-1-Hydroxyethyl)-8-Isobutyl-17-Methyl-2,6,9,12,15-Pentaoxo-3,7,10,13,16-Pentaaza-1(2,1)-Pyrrolidina-5(1,3)-Benzenacyclooctadecaphane-5^6,11-Diyl))-Diacetic Acid]
  IC50: ~87 nM
